Publication PMC5840262, “Design, Synthesis and Evaluation of Branched RRWQWR-Based Peptides as Antibacterial Agents Against Clinically Relevant Gram-Positive and Gram-Negative Pathogens” (Frontiers in Microbiology, 2018)
Converted amounts (≈) assume the structure as drawn. Where two headings read alike, the source gives them in different places. Bridge positions count the residues as written; N and C are the ends. Square brackets hold non-standard residues; d marks the D form. Peptide text beside a SMILES is read from it. I, II: the chains in the order shown. Ahx = NCCCCCC(=O)O

Experiments:
Assay type in all cases: cell-based
[1] = test system: Pseudomonas aeruginosa clinical isolate 48,221
Procedure: (§1) For the clinical isolates, we used 20 different isolates from the Public Health Reference Laboratory collection of the Secretaría de Salud del Distrito (SdSD; Bogotá, Colombia). The samples were collected from June to December 2016. For each isolate, the patient parameters (age, gender and location) and the culture site were recorded for epidemiologic monitoring (Table 1). All isolates had been previously tested for antibiotic sensitivity at the Public Health Microbiology Laboratory using either the Phoenix™ system (Gram-positive) or the VITEK 2 system (Gram-negative).
(§2) We screened all five peptides against the ATCC reference strains and the clinical isolates according to Method M7-A7 of the National Committee for Clinical Laboratory Standards (CLSI, [2007]). The MIC50 and MBC values were determined using a broth microdilution and growth inhibition method previously reported by Leon-Calvijo et al. ([2015]), with some modifications (Wiegand et al., [2008]). Briefly, the MIC50 experiments comprised a liquid-inhibition growth assay in a sterile, untreated, 96-well flat-bottom tissue culture plate. The bacteria were cultured overnight n Mueller Hinton agar; three colonies were transferred to 8 mL of Mueller Hilton broth and incubated at 37°C until the mid-exponential phase of growth. The turbidity of the cultures was measured and adjusted spectrophotometrically to a McFarland standard of 0.5, and then diluted to a final concentration of 5 × 10^7 colony forming units (CFU) per well. Stock solutions (2,000 μM) of each test peptide were serially diluted to final concentrations (per well) of 200, 100, 50, 25, 12.5, and 6.25 μM. Each concentration was evaluated in duplicate and each assay was performed in triplicate.
(§3) Wells containing Mueller Hilton broth with bacterial inoculum only served as bacterial-growth controls. Additional controls included Mueller Hilton broth alone (as blank) and Mueller Hilton broth with ciprofloxacin (2 μg/mL; as positive control). The microplate was incubated for 24 h at 37°C, and growth inhibition was measured by monitoring the optical density at 620 nm (OD620). The MIC50 was defined as the peptide concentration at which bacterial growth was inhibited by 50%.
(§4) To determine the MBC, an aliquot from each well of the MIC50 assay was spread onto Mueller Hilton agar. After 18 h at 37°C, the concentration that inhibited bacterial growth was determined. Each of these tests was performed four times. MBC was defined as the lowest concentration of peptide at which the number of bacteria was reduced by 99.9% in vitro (European Committee for Antimicrobial Susceptibility Testing, [2000]).

[2] = test system: Staphylococcus aureus clinical isolate 52,013
Procedure: as §1, §2, §3, §4

[3] = test system: Staphylococcus aureus clinical isolate 48,577
Procedure: as §1, §2, §3, §4

[4] = test system: Klebsiella pneumoniae clinical isolate 51,009
Procedure: as §1, §2, §3, §4

[5] = test system: Staphylococcus aureus clinical isolate 43,337
Procedure: as §1, §2, §3, §4

[6] = test system: Enterococcus faecium clinical isolate 550
Procedure: as §1, §2, §3, §4

[7] = test system: Pseudomonas aeruginosa clinical isolate 48,526
Procedure: as §1, §2, §3, §4

[8] = test system: Enterococcus faecium clinical isolate 1,225
Procedure: as §1, §2, §3, §4

[9] = test system: Enterococcus faecium clinical isolate 1,040
Procedure: as §1, §2, §3, §4

[10] = test system: Klebsiella pneumoniae clinical isolate 50,424
Procedure: as §1, §2, §3, §4

[11] = test system: Klebsiella pneumoniae clinical isolate 49,644
Procedure: as §1, §2, §3, §4

[12] = test system: Klebsiella pneumoniae clinical isolate 50,181
Procedure: as §1, §2, §3, §4

[13] = test system: Enterococcus faecium clinical isolate 1,461
Procedure: as §1, §2, §3, §4

[14] = test system: Pseudomonas aeruginosa clinical isolate 48,220
Procedure: as §1, §2, §3, §4

[15] = test system: Pseudomonas aeruginosa clinical isolate 48,458
Procedure: as §1, §2, §3, §4

[16] = test system: Enterococcus faecium clinical isolate 1,462
Procedure: as §1, §2, §3, §4

[17] = test system: Staphylococcus aureus clinical isolate 48,575
Procedure: as §1, §2, §3, §4

In the case of `N=C(N)NCCC[C@H](NC(=O)[C@H](Cc1c[nH]c2ccccc12)NC(=O)[C@H](CCC(N)=O)NC(=O)[C@H](Cc1c[nH]c2ccccc12)NC(=O)[C@H](CCCNC(=N)N)NC(=O)[C@@H](N)CCCNC(=N)N)C(=O)NCCCC[C@H](NC(=O)[C@H](CCCNC(=N)N)NC(=O)[C@H](Cc1c[nH]c2ccccc12)NC(=O)[C@H](CCC(N)=O)NC(=O)[C@H](Cc1c[nH]c2ccccc12)NC(=O)[C@H](CCCNC(=N)N)NC(=O)[C@@H](N)CCCNC(=N)N)C(=O)NCCCCCC(N)=O` [LfcinB (20–25)2] (I: H-RRWQWRK[Ahx]-NH2 / II: H-RRWQWR; amide I:7-II:C; N-terminus assumed), the MBC ([1]; clinical isolate 48,221, 18 h) is reported as over 100 µM, the MIC50 ([1]; clinical isolate 48,221, 24 h) is reported as 64.2 µM (≈ 141 µg/mL) and the MBC ([2]; clinical isolate 52,013, 18 h) is reported as 25.0 µM (≈ 54.9 µg/mL). The MIC50 ([2]; clinical isolate 52,013, 24 h) was 12.6 µM (≈ 27.7 µg/mL), the MBC ([3]; clinical isolate 48,577, 18 h) was 50.0 µM (≈ 110 µg/mL) and the MIC50 ([3]; clinical isolate 48,577, 24 h) was 12.9 µM (≈ 28.3 µg/mL). It also gave an MBC ([4]; clinical isolate 51,009, 18 h) of 25.0 µM (≈ 54.9 µg/mL), an MIC50 ([4]; clinical isolate 51,009, 24 h) of 5.6 µM (≈ 12.3 µg/mL) and an MBC ([5]; clinical isolate 43,337, 18 h) of 25.0 µM (≈ 54.9 µg/mL). The MIC50 ([5]; clinical isolate 43,337, 24 h) was 13.5 µM (≈ 29.7 µg/mL), the MBC ([6]; clinical isolate 550, 18 h) was over 100 µM and the MIC50 ([6]; clinical isolate 550, 24 h) was over 100 µM. The MBC ([7]; clinical isolate 48,526, 18 h) was over 100 µM, the MIC50 ([7]; clinical isolate 48,526, 24 h) was 36.3 µM (≈ 79.7 µg/mL) and the MBC ([8]; clinical isolate 1,225, 18 h) was over 100 µM. It also gave an MIC50 ([8]; clinical isolate 1,225, 24 h) of over 100 µM, an MBC ([9]; clinical isolate 1,040, 18 h) of over 100 µM and an MIC50 ([9]; clinical isolate 1,040, 24 h) of over 100 µM. It also gave an MBC ([10]; clinical isolate 50,424, 18 h) of over 100 µM, an MIC50 ([10]; clinical isolate 50,424, 24 h) of 5.8 µM (≈ 12.7 µg/mL) and an MBC ([11]; clinical isolate 49,644, 18 h) of 50.0 µM (≈ 110 µg/mL). It also gave an MIC50 ([11]; clinical isolate 49,644, 24 h) of 12.3 µM (≈ 27 µg/mL), an MBC ([12]; clinical isolate 50,181, 18 h) of 100.0 µM (≈ 220 µg/mL) and an MIC50 ([12]; clinical isolate 50,181, 24 h) of 6.6 µM (≈ 14.5 µg/mL). The MBC ([13]; clinical isolate 1,461, 18 h) was over 100 µM, the MIC50 ([13]; clinical isolate 1,461, 24 h) was over 100 µM and the MBC ([14]; clinical isolate 48,220, 18 h) was 50.0 µM (≈ 110 µg/mL). The MIC50 ([14]; clinical isolate 48,220, 24 h) was 50.0 µM (≈ 110 µg/mL), the MBC ([15]; clinical isolate 48,458, 18 h) was over 100 µM and the MIC50 ([15]; clinical isolate 48,458, 24 h) was 75.0 µM (≈ 165 µg/mL). The MBC ([16]; clinical isolate 1,462, 18 h) was over 100 µM, the MIC50 ([16]; clinical isolate 1,462, 24 h) was 49.8 µM (≈ 109 µg/mL) and the MBC ([17]; clinical isolate 48,575, 18 h) was 25.0 µM (≈ 54.9 µg/mL). For the same compound, the MIC50 ([17]; clinical isolate 48,575, 24 h) was 13.4 µM (≈ 29.4 µg/mL).

For “(RRWQWR)4K2Ahx2C2 (disulfide) [LfcinB (20–25)4, branched tetrameric peptide (RRWQWR)4K2Ahx2C2, two dimers linked by a cysteine disulfide bridge]”, the MIC50 ([1]; P. aeruginosa isolate 48,221, broth microdilution, 24 h 37°C, OD620, 50% growth inhibition) was 11.9 µM, the MBC ([1]; P. aeruginosa isolate 48,221, plated on agar 18 h 37°C, 99.9% reduction) was 50.0 µM and the MIC50 ([2]; S. aureus isolate 52,013, broth microdilution, 24 h 37°C, OD620, 50% growth inhibition) was 6.7 µM. For the same compound, the MBC ([2]; S. aureus isolate 52,013, plated on agar 18 h 37°C, 99.9% reduction) was 12.5 µM, the MIC50 ([3]; S. aureus isolate 48,577, broth microdilution, 24 h 37°C, OD620, 50% growth inhibition) was 6.3 µM and the MBC ([3]; S. aureus isolate 48,577, plated on agar 18 h 37°C, 99.9% reduction) was 100.0 µM. For the same compound, the MIC50 ([4]; K. pneumoniae isolate 51,009, broth microdilution, 24 h 37°C, OD620, 50% growth inhibition) was 1.6 µM, the MBC ([4]; K. pneumoniae isolate 51,009, plated on agar 18 h 37°C, 99.9% reduction) was 25.0 µM and the MIC50 ([5]; S. aureus isolate 43,337, broth microdilution, 24 h 37°C, OD620, 50% growth inhibition) was 6.3 µM. For the same compound, the MBC ([5]; S. aureus isolate 43,337, plated on agar 18 h 37°C, 99.9% reduction) was 12.5 µM, the MIC50 ([6]; E. faecium isolate 550, broth microdilution, 24 h 37°C, OD620, 50% growth inhibition) was over 100 µM and the MBC ([6]; E. faecium isolate 550, plated on agar 18 h 37°C, 99.9% reduction) was 12.5 µM. It also gave an MIC50 ([7]; P. aeruginosa isolate 48,526, broth microdilution, 24 h 37°C, OD620, 50% growth inhibition) of 24.9 µM, an MBC ([7]; P. aeruginosa isolate 48,526, plated on agar 18 h 37°C, 99.9% reduction) of over 100 µM and an MIC50 ([8]; E. faecium isolate 1,225, broth microdilution, 24 h 37°C, OD620, 50% growth inhibition) of over 100 µM. It also gave an MBC ([8]; E. faecium isolate 1,225, plated on agar 18 h 37°C, 99.9% reduction) of 12.5 µM, an MIC50 ([9]; E. faecium isolate 1,040, broth microdilution, 24 h 37°C, OD620, 50% growth inhibition) of over 100 µM and an MBC ([9]; E. faecium isolate 1,040, plated on agar 18 h 37°C, 99.9% reduction) of over 100 µM. The MIC50 ([10]; K. pneumoniae isolate 50,424, broth microdilution, 24 h 37°C, OD620, 50% growth inhibition) was 7.8 µM, the MBC ([10]; K. pneumoniae isolate 50,424, plated on agar 18 h 37°C, 99.9% reduction) was 100.0 µM and the MIC50 ([12]; K. pneumoniae isolate 50,181, broth microdilution, 24 h 37°C, OD620, 50% growth inhibition) was 5.5 µM. It also gave an MBC ([12]; K. pneumoniae isolate 50,181, plated on agar 18 h 37°C, 99.9% reduction) of 100.0 µM, an MIC50 ([13]; E. faecium isolate 1,461, broth microdilution, 24 h 37°C, OD620, 50% growth inhibition) of over 100 µM and an MBC ([13]; E. faecium isolate 1,461, plated on agar 18 h 37°C, 99.9% reduction) of 12.5 µM. The MIC50 ([14]; P. aeruginosa isolate 48,220, broth microdilution, 24 h 37°C, OD620, 50% growth inhibition) was 12.6 µM, the MBC ([14]; P. aeruginosa isolate 48,220, plated on agar 18 h 37°C, 99.9% reduction) was 25.0 µM and the MIC50 ([15]; P. aeruginosa isolate 48,458, broth microdilution, 24 h 37°C, OD620, 50% growth inhibition) was 72.8 µM. For the same compound, the MBC ([15]; P. aeruginosa isolate 48,458, plated on agar 18 h 37°C, 99.9% reduction) was over 100 µM, the MIC50 ([16]; E. faecium isolate 1,462, broth microdilution, 24 h 37°C, OD620, 50% growth inhibition) was over 100 µM and the MBC ([16]; E. faecium isolate 1,462, plated on agar 18 h 37°C, 99.9% reduction) was 12.5 µM. The MIC50 ([17]; S. aureus isolate 48,575, broth microdilution, 24 h 37°C, OD620, 50% growth inhibition) was 9.2 µM and the MBC ([17]; S. aureus isolate 48,575, plated on agar 18 h 37°C, 99.9% reduction) was 12.5 µM.
